Assay results reported in ChEMBL document CHEMBL1150497, “Imidazol-1-ylalkanoate esters and their corresponding acids. A novel series of extrinsic 1H NMR probes for intracellular pH” (Bioorg Med Chem Lett, 1992).

Assay: pKa value by 1H NMR spectroscopy
Format: physicochemical

| SMILES | pKa |
| --- | --- |
| O=C(O)Cn1ccnc1 | 7.23 |
| CCOC(=O)C(C(=O)OCC)n1ccnc1 | 5.02 |
| CCOC(=O)CC(CC(=O)OCC)n1ccnc1 | 6.45 |
| COC(=O)Cn1ccnc1 | 7.1 |
| c1c[nH]cn1 [IMIDAZOLE] | 7.14 |

Results, then the molecule that gave them:

| pKa | SMILES |
| --- | --- |
| 6.86 | CCOC(=O)CC(C(=O)O)n1ccnc1 (centres undefined) |
| 6.02 | CCOC(=O)CC(C(=O)OCC)n1ccnc1 (centres undefined) |
| 7.37 | O=C(O)CC(CC(=O)O)n1ccnc1 |
| 7.32 | O=C(O)CC(C(=O)O)n1ccnc1 (centres undefined) |
